Measured values taken from PubChem BioAssay AID206 (DTP/NCI, 2004).
Values joined by “and” are separate entries in the source; they are usually repeats but may differ in a detail not shown here. Identical values can stand only once. Results filed as inconclusive are left out.

Test system: nude mice, HT29 intrarenal xenograft, tumor weight T/C
Assay: NCI In Vivo Anticancer Drug Screen. Data for tumor model HT29;CX-1 Human Adenocarcinoma (MER+) (intrarenal inoculation) in NU/NU Swiss (nude) mice
Details: endpoint: mean tumor weight change, higher = larger tumour
How it was run: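 Tumor-bearing mice received test compound or vehicle, and tumor size or survival was recorded. Values are the treated-group measurement divided by the vehicle-treated control measurement.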

[1] = dose: 100.0 mg/kg/injection, schedule: Q04DX004 (sc), vehicle: saline with Tween-80
[2] = dose: 300.0 mg/kg/injection, schedule: Q04DX004 (sc), vehicle: saline with Tween-80
[3] = dose: 600.0 mg/kg/injection, schedule: Q04DX004 (sc), vehicle: saline with Tween-80
[4] = dose: 1200.0 mg/kg/injection, schedule: Q04DX004 (sc), vehicle: saline with Tween-80
[5] = dose: 2400.0 mg/kg/injection, schedule: Q04DX004 (sc), vehicle: saline with Tween-80
[6] = dose: 37.5 mg/kg/injection, schedule: Q04DX004 (sc), vehicle: saline with Tween-80
[7] = dose: 75.0 mg/kg/injection, schedule: Q04DX004 (sc), vehicle: saline with Tween-80
[8] = dose: 150.0 mg/kg/injection, schedule: Q04DX004 (sc), vehicle: saline with Tween-80
[9] = dose: 100.0 mg/kg/injection, schedule: Q01DX010 (sc), vehicle: Klucel (hydroxypropylcellulose) (HPC)
[10] = dose: 200.0 mg/kg/injection, schedule: Q01DX010 (sc), vehicle: Klucel (hydroxypropylcellulose) (HPC)

## O=NNc1ccccn1
dose: 0.13 mg/kg/injection, schedule: Q01DX010 (sc), vehicle: saline
  T/C: 150 % of control
dose: 0.25 mg/kg/injection, schedule: Q01DX010 (sc), vehicle: saline
  T/C: 176 % of control
dose: 0.5 mg/kg/injection, schedule: Q01DX010 (sc), vehicle: saline
  T/C: 112 % of control
dose: 1.0 mg/kg/injection, schedule: Q01DX010 (sc), vehicle: saline
  T/C: 208 % of control
dose: 4.0 mg/kg/injection, schedule: Q01DX010 (sc), vehicle: saline
  T/C: 105 % of control
dose: 32.0 mg/kg/injection, schedule: Q01DX010 (sc), vehicle: saline
  T/C: 90 % of control

## COC1=C(OC)C(=O)C(SC/C=C(\C)CCCC(C)CCCC(C)CCCC(C)C)=CC1=O (configuration not stated)
[1]
  T/C: 11 % of control
dose: 200.0 mg/kg/injection, schedule: Q04DX004 (sc), vehicle: saline with Tween-80
  T/C: 36 % of control
[2]
  T/C: 59 % of control
dose: 400.0 mg/kg/injection, schedule: Q04DX004 (sc), vehicle: saline with Tween-80
  T/C: 18 % of control
[3]
  T/C: 26 % of control
dose: 800.0 mg/kg/injection, schedule: Q04DX004 (sc), vehicle: saline with Tween-80
  T/C: 12 % of control
[4]
  T/C: 39 % of control
[5]
  T/C: 55 % of control

## C[Si](C)(C)n1nnn(-c2ccccc2)c1=O
[6]
  T/C: 116 % of control
[7]
  T/C: 120 % of control
[2]
  T/C: 116 % of control

## NC(=O)c1ncn(C2OC(CO)C(O)C2O)n1 (configuration not stated)
dose: 225.0 mg/kg/injection, schedule: Q04DX004 (sc), vehicle: saline
  T/C: 93 % of control
dose: 450.0 mg/kg/injection, schedule: Q04DX004 (sc), vehicle: saline
  T/C: 75 % of control
dose: 900.0 mg/kg/injection, schedule: Q04DX004 (sc), vehicle: saline
  T/C: 61 % of control

## OC1(CSc2ccccc2)CCCCC1
[1]
  T/C: 113 % of control

## CCCCCC1c2cc(O)ccc2OC1N1CCOCC1 (configuration not stated)
[7]
  T/C: 29 % of control
[8]
  T/C: 34 % of control
[4]
  T/C: 57 % of control
[5]
  T/C: 15 % of control

## Cc1cc2c(C(C)C)c(O)c(O)c(C=O)c2c(O)c1-c1c(C)cc2c(C(C)C)c(O)c(O)c(C=O)c2c1O
[6]
  T/C: 100 % of control
[7]
  T/C: 71 % of control
[8]
  T/C: 64 % of control
[2]
  T/C: 46 % of control

## ClCCCCCCCCCCc1ccccc1
[9]
  T/C: 23 % of control
[10]
  T/C: 36 % of control
dose: 400.0 mg/kg/injection, schedule: Q01DX010 (sc), vehicle: Klucel (hydroxypropylcellulose) (HPC)
  T/C: 57 % of control

## Cc1ccccc1N(CC1CO1)CC1CO1 (configuration not stated)
dose: 50.0 mg/kg/injection, schedule: Q01DX010 (sc), vehicle: suspension in saline
  T/C: 157 % of control
dose: 100.0 mg/kg/injection, schedule: Q01DX010 (sc), vehicle: suspension in saline
  T/C: 38 % of control
dose: 200.0 mg/kg/injection, schedule: Q01DX010 (sc), vehicle: suspension in saline
  T/C: 15 % of control
dose: 800.0 mg/kg/injection, schedule: Q01DX010 (sc), vehicle: suspension in saline
  T/C: 67 % of control

## CCCCCCCCCCC(OC(C)=O)C1CCC(C2CCC(C(O)CCCCCCCCCCCCC3C=C(C)OC3=O)O2)O1 (configuration not stated)
dose: 25.0 mg/kg/injection, schedule: Q04DX004 (sc), vehicle: water
  T/C: 119 % of control
dose: 50.0 mg/kg/injection, schedule: Q04DX004 (sc), vehicle: water
  T/C: 92 % of control

## Cn1c2nc(=O)n(-c3ccccc3)c(=O)c-2nc2c1CCCC2
[8]
  T/C: 106 % of control
[2]
  T/C: 32 % of control

## O=C(Nc1ccc(C2=NCCN2)cc1)c1ccc(C(=O)Nc2ccc(C3=NCCN3)cc2)c(Cl)c1
dose: 12.5 mg/kg/injection, schedule: Q01DX010 (sc), vehicle: water
  T/C: 101 % of control
dose: 25.0 mg/kg/injection, schedule: Q01DX010 (sc), vehicle: water
  T/C: 61 % of control
dose: 50.0 mg/kg/injection, schedule: Q01DX010 (sc), vehicle: water
  T/C: 78 % of control

## NC(=O)c1csc(C2OC(CO)C(O)C2O)n1 (configuration not stated)
dose: 125.0 mg/kg/injection, schedule: Q04DX004 (sc), vehicle: water
  T/C: 119 % of control

## CN(C)C1C(=O)C(C(=O)NP(=O)(NCCCO)N(CCCl)CCCl)=C(O)C2(O)C(=O)C3=C(O)c4c(O)cccc4C(C)(O)C3CC12 (configuration not stated)
[7]
  T/C: 89 % of control
[2]
  T/C: 7 % of control and 32 % of control
[3]
  T/C: -99 % of control

## C[PH+](C)C.C[PH+](C)C.[Au]
dose: 2.5 mg/kg/injection, schedule: Q04DX004 (sc), vehicle: saline
  T/C: 108 % of control
dose: 20.0 mg/kg/injection, schedule: Q04DX004 (sc), vehicle: saline
  T/C: 42 % of control and 65 % of control

## O=c1cc(CCl)[nH]nc1CCl
dose: 25.0 mg/kg/injection, schedule: Q01DX010 (sc), vehicle: saline with Tween-80
  T/C: 90 % of control
dose: 50.0 mg/kg/injection, schedule: Q01DX010 (sc), vehicle: saline with Tween-80
  T/C: 156 % of control
dose: 100.0 mg/kg/injection, schedule: Q01DX010 (sc), vehicle: saline with Tween-80
  T/C: 90 % of control
dose: 200.0 mg/kg/injection, schedule: Q01DX010 (sc), vehicle: saline with Tween-80
  T/C: 27 % of control

## Cc1ccc(NCCN(C)C)c2c(=O)c3cc(O)ccc3sc12
dose: 225.0 mg/kg/injection, schedule: Q04DX004 (sc), vehicle: Klucel (hydroxypropylcellulose) (HPC)
  T/C: 81 % of control
dose: 450.0 mg/kg/injection, schedule: Q04DX004 (sc), vehicle: Klucel (hydroxypropylcellulose) (HPC)
  T/C: 64 % of control
dose: 900.0 mg/kg/injection, schedule: Q04DX004 (sc), vehicle: Klucel (hydroxypropylcellulose) (HPC)
  T/C: 99 % of control
dose: 1800.0 mg/kg/injection, schedule: Q04DX004 (sc), vehicle: Klucel (hydroxypropylcellulose) (HPC)
  T/C: 68 % of control

## CCCCCCCCCCCCCCCCP(=O)(OCCOCCCCCC)OCCOCCCCCC
dose: 37.5 mg/kg/injection, schedule: Q04DX004 (sc), vehicle: saline
  T/C: 206 % of control
dose: 75.0 mg/kg/injection, schedule: Q04DX004 (sc), vehicle: saline
  T/C: 93 % of control
dose: 300.0 mg/kg/injection, schedule: Q04DX004 (sc), vehicle: saline
  T/C: 178 % of control

## C[n+]1c2cc(N)ccc2cc2ccc(N)cc21
dose: 1.56 mg/kg/injection, schedule: Q01DX010 (sc), vehicle: saline
  T/C: 72 % of control
dose: 3.13 mg/kg/injection, schedule: Q01DX010 (sc), vehicle: saline
  T/C: 49 % of control
dose: 6.25 mg/kg/injection, schedule: Q01DX010 (sc), vehicle: saline
  T/C: 88 % of control

## CCC/C=C/C=C/C(=O)OC1/C(=C/C(=O)OC)CC2CC(C(C)O)OC(=O)CC(O)CC3CC(OC(C)=O)C(C)(C)C(O)(CC4C/C(=C/C(=O)OC)CC(/C=C/C(C)(C)C1(O)O2)O4)O3 (configuration not stated)
dose: 0.25 mg/kg/injection, schedule: Q04DX004 (sc), vehicle: saline + alcohol
  T/C: 95 % of control
dose: 0.5 mg/kg/injection, schedule: Q04DX004 (sc), vehicle: saline + alcohol
  T/C: 110 % of control
dose: 1.0 mg/kg/injection, schedule: Q04DX004 (sc), vehicle: saline + alcohol
  T/C: 33 % of control
dose: 2.0 mg/kg/injection, schedule: Q04DX004 (sc), vehicle: saline + alcohol
  T/C: 47 % of control
dose: 4.0 mg/kg/injection, schedule: Q04DX004 (sc), vehicle: saline + alcohol
  T/C: 53 % of control
dose: 8.0 mg/kg/injection, schedule: Q04DX004 (sc), vehicle: saline + alcohol
  T/C: 88 % of control

## Nc1ccc2nc3ccc(N)cc3[n+](-c3ccccc3)c2c1
dose: 9.0 mg/kg/injection, schedule: Q04DX004 (sc), vehicle: saline
  T/C: 80 % of control
dose: 18.0 mg/kg/injection, schedule: Q04DX004 (sc), vehicle: saline
  T/C: 62 % of control
dose: 36.0 mg/kg/injection, schedule: Q04DX004 (sc), vehicle: saline
  T/C: 96 % of control
dose: 72.0 mg/kg/injection, schedule: Q04DX004 (sc), vehicle: saline
  T/C: 52 % of control

## C[n+]1c(/C=N/NC(N)=S)ccc2ccccc21
[8]
  T/C: 75 % of control
[3]
  T/C: 66 % of control
[4]
  T/C: 72 % of control

## O=c1[nH]c(=O)n([C@H]2CCCO2)cc1F
[9]
  T/C: 55 % of control
[10]
  T/C: 103 % of control

## O=P1(N(CCCl)CCCl)NCCCO1 (configuration not stated)
dose: 40.0 mg/kg/injection, schedule: Q04DX004 (ip), vehicle: saline
  T/C: 75 % of control
dose: 50.0 mg/kg/injection, schedule: Q01DX010 (sc), vehicle: saline
  T/C: 58 % of control
dose: 60.0 mg/kg/injection, schedule: Q04DX004 (ip), vehicle: saline
  T/C: 53 % of control
dose: 90.0 mg/kg/injection, schedule: Q04DX004 (ip), vehicle: saline
  T/C: 26 % of control
